Source: patent publication US5140009A (Tap Pharmaceuticals, Inc., priority 1990, dated 1992)
Like-named read-outs stand apart in the source and are kept apart here. Numbered stars: 1 amine (or outer) side, 2 acyl side, 3 side chain; on linkers, the order of the positions; unused ones are H or OH. Square brackets hold non-standard residues; d marks the D form. Peptide text beside a SMILES is read from it. * marks the point of attachment. Propanoyl(3-(4-F-phenyl)) = O=C(CCc1ccc(F)cc1)*; Propanoyl(3-(4-Cl-Ph)) = O=C(CCc1ccc(Cl)cc1)*; Desaminotyrosyl = O=C(CCc1ccc(O)cc1)*; d1Nal = N[C@H](Cc1cccc2ccccc12)C(=O)O; NMeY = CN[C@@H](Cc1ccc(O)cc1)C(=O)O; NMeL = CN[C@@H](CC(C)C)C(=O)O; NHPhenethyl = c1ccc(CCN*)cc1; Nicotinoyl = O=C(c1cccnc1)*; X4 = O=C(CCc1cccc(F)c1)*; CO = O=C([*:1])[*:2]

Biological target: T1, LHRH receptors (Rattus norvegicus, UniProt P30969)
T1 construct: Pituitary membranes containing LHRH receptors are prepared in batches from quick-frozen rat pituitaries; tissue Hilltop Labs; host or cells: rat pituitary membranes
T1 sequence (P30969 1-327): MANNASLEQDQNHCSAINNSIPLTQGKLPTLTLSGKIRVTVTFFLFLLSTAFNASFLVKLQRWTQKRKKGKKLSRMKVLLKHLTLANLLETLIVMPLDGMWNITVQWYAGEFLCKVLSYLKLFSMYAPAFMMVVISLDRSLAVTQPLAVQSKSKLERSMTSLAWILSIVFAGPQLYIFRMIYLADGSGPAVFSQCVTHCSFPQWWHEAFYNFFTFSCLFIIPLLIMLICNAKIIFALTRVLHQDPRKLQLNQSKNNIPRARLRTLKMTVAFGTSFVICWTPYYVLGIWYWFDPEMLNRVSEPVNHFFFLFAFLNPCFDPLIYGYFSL
Assay: Receptor Binding (radioligand receptor binding assay)
Settings: rat pituitary membranes, 2 hours at 4° C.

[1] = table 4, radioligand 50 pM, read-out: Receptor Binding pkI (converted)

Row | SMILES | Ki [1] | further results
1 | CCNC(=O)[C@@H]1CCCN1C(=O)[C@H](CCCN=C(N)N)NC(=O)[C@H](CC(C)C)NC(=O)[C@@H](Cc1c[nH]c2ccccc12)NC(=O)[C@H](Cc1ccc(O)cc1)NC(=O)[C@H](CO)NC(=O)[C@H](Cc1c[nH]c2ccccc12)NC(=O)CCc1ccc(O)cc1 [Compound 99, (3-9)[N-(3-(4-Hydroxyphenyl)propionyl) -Trp^3 -D-Trp^6 -Pro^9 NHEt]LHRH] (Desaminotyrosyl-WSY[dW]LRP-NHEt) |  | Ki (table 3, radioiodinated [D-Leu^6 -des Gly^10 ]-LHRH ethyl amide 50 pM, read-out: Receptor Binding pkI (converted)): 0.0832 nM
2 | CC(C)C[C@H](NC(=O)[C@@H](Cc1c[nH]c2ccccc12)NC(=O)[C@H](Cc1ccc(O)cc1)N(C)C(=O)[C@H](CO)NC(=O)[C@@H](Cc1c[nH]c2ccccc12)NC(=O)[C@@H](Cc1ccccc1)NC(=O)NCCc1ccccc1)C(=O)N[C@@H](CCCNC(=N)N)C(=O)N1CCC[C@H]1C(=O)N[C@H](C)C(N)=O [Compound 234, N-(alpha-Phenethylaminocarbonyl)-D-Phe-D-Trp-Ser-NMeTyr-D-Trp-Leu-Arg-Pro-D-AlaNH2] ({NHPhenethyl-CO}-[dF][dW]S[NMeY][dW]LRP[dA]-NH2) |  | Ki (Receptor Binding pkI, table 4, radioligand 50 pM): 0.398 nM
3 | CCNC(=O)[C@@H]1CCCN1C(=O)[C@H](CCCN=C(N)N)NC(=O)[C@H](CC(C)C)NC(=O)[C@@H](Cc1c[nH]c2ccccc12)NC(=O)[C@H](Cc1ccc(O)cc1)NC(=O)[C@H](CO)NC(=O)[C@@H](Cc1cccc2ccccc12)NC(=O)CCc1ccc(F)cc1 [Compound 145, (3-9)[N-(3-(4-Fluorophenyl)propionyl) -D-1-Nal^3 -D-Trp^6 -Pro^9 NHEt]LHRH] ({Propanoyl(3-(4-F-phenyl))}-[d1Nal]SY[dW]LRP-NHEt) | 0.0251 nM | 

More lines, main results first:

Row | Ki [1] | SMILES | further results
4 | 0.00955 nM | CC(C)C[C@H](NC(=O)[C@@H](CCCCNC(=O)c1cccnc1)NC(=O)[C@H](CCCCNC(=O)c1cccnc1)NC(=O)[C@H](CO)NC(=O)[C@@H](Cc1cccc2ccccc12)NC(=O)CCc1ccc(F)cc1)C(=O)N[C@@H](CCCNC(=N)N)C(=O)N1CCC[C@H]1C(=O)N[C@H](C)C(N)=O [Compound 191] ({Propanoyl(3-(4-F-phenyl))}-[d1Nal]SK(Nicotinoyl)[dK](Nicotinoyl)LRP[dA]-NH2) | 
5 | 0.0692 nM | CCNC(=O)[C@@H]1CCCN1C(=O)[C@H](CCCN=C(N)N)NC(=O)[C@H](CC(C)C)NC(=O)[C@@H](Cc1c[nH]c2ccccc12)NC(=O)[C@H](Cc1ccc(O)cc1)N(C)C(=O)[C@H](CO)NC(=O)[C@@H](Cc1c[nH]c2ccccc12)NC(=O)CCc1ccc(Cl)cc1 [Compound 156, (3-9)[N-(3-(4-Chlorophenyl)propionyl) -D-Trp^3,6 -NMeTyr^5 -Pro^9 NHEt]LHRH] ({Propanoyl(3-(4-Cl-Ph))}-[dW]S[NMeY][dW]LRP-NHEt) | 
6 | 0.024 nM | CCNC(=O)[C@@H]1CCCN1C(=O)[C@H](CCCN=C(N)N)NC(=O)[C@H](CC(C)C)NC(=O)[C@@H](CCCCNC(=O)c1cccnc1)NC(=O)[C@H](Cc1ccc(O)cc1)N(C)C(=O)[C@H](CO)NC(=O)[C@@H](Cc1c[nH]c2ccccc12)NC(=O)CCc1cccc(F)c1 [Compound 153, (3-9)[N-(3-(3-Fluorophenyl)propionyl) -D-Trp^3 -NMeTyr^5 -D-Lys^6 (N-epsilon-nicotinyl)-Pro ^9 NHEt]LHRH] (X4-[dW]S[NMeY][dK](Nicotinoyl)LRP-NHEt) | 
7 | 0.0158 nM | CC(C)C[C@@H](C(=O)N[C@@H](CCCNC(=N)N)C(=O)N1CCC[C@H]1C(=O)N[C@H](C)C(N)=O)N(C)C(=O)[C@@H](CCCCN)NC(=O)[C@H](Cc1ccc(O)cc1)N(C)C(=O)[C@H](CO)NC(=O)[C@@H](Cc1cccc2ccccc12)NC(=O)CCc1ccc(F)cc1 [Compound 190, (3-10)[N-(3-(4-Fluorophenyl)propionyl)-D-1-Nal^3 -NMeTyr^5 -D-Lys^6 -NMeLeu^7 -D-Ala^10]LHRH] ({Propanoyl(3-(4-F-phenyl))}-[d1Nal]S[NMeY][dK][NMeL]RP[dA]-NH2) | 
